Data: US20170143605A1, “Compositions Comprising Osteopontin Derivatives for the Inhibition of Hair Growth” (FOLLICUM AB, priority 2014, published 2017)

Key:
[1] = system: human male scalp skin grafted onto SCID mice; assay: Hair growth of human male scalp skin grafted onto SCID mice; type: in vivo; conditions: human scalp grafts on SCID/beige mice; FOL-005 300 nM per graft intradermally twice a week; Minoxidil 5% topically twice a day; three months
Excerpt: The effect of FOL-005 on hair growth of human male scalp skin grafted onto SCID mice was studied.
The aim of the study was to investigate the effect of FOL-005 on hair growth of human male scalp skin with tendency to androgenetic alopecia. In order to address this issue, fort-two female SCID/beige mice, six weeks of age, were involved in the study. Punch grafts, 3 mm^2, obtained from scalp skin of human volunteers with tendency to develop common alopecia, were transplanted onto SCID/beige mice (three grafts per mouse).
One week following transplantation, the mice were randomly divided into four treated groups as follows: • 1. Vehicle (10 mice) was injected intradermally twice a week and served as a negative control. • 2. Minoxidil (5%) (11 mice) was applied topically twice a day and served as appositive control. • 3. FOL-005 (300 nM per graft) (11 mice) was injected intradermally twice a week. • 4. Minoxidil 5%+FOL-005/Minoxidil (5%) (11 mice) was applied topically twice a day. FOL-005 (300 nM per graft) was injected intradermally twice a week. For the first 4 weeks the animals were treated with minoxidil only (in order to initiate hair growth) and then for the remaining period (2 months) FOL-005 treatment was added as injections, while minoxidil treatment was maintained as a topical application.
The number of hairs/graft was counted twice a week by two independent observers. […]

[2] = system: isolated human hair follicles; assay: Organ culture of isolated human hair follicles: hair cycle staging (anagen to catagen); type: cell-based
Excerpt: Anagen VI hair follicles (see Kloepper et al., 2010, the disclosures of which are incorporated herein by reference) were micro dissected from normal human scalp skin obtained with informed patient consent from three healthy adult females undergoing routine face-lift cosmetic surgery.
Isolated hair follicles were organ-cultured for 6-10 days in insulin- and hydrocortisone-supplemented William's E medium according to Philpott et al. (see Philpott et al., 1990; Bodó et al., 2009; Gáspár et al., 2010, the disclosures of which are incorporated herein by reference).
Treatment with the exemplary polypeptide FOL-005 was initiated immediately upon culturing the hair follicles, and lasted 7 to 10 days.
At the end of organ-culture, hair follicles were embedded and processed for longitudinal cryosections (Bodó et al., 2009; Gáspár et al., 2010).

[3] = system: isolated human hair follicles; assay: Masson Fontana melanin pigmentation analysis in cultured isolated human hair follicles; type: cell-based; conditions: 60 nM
Description: FIG. 3). Effect of FOL-005 on melatonin content in cultured isolated human hair follicles. The analysis was performed using Masson Fontana histochemistry and morphometric evaluation of each tissue section. Results presented as mean+/−SEM, n=26-47 hair follicles evaluated in each group. One-way ANOVA and Bonferroni's post-hoc test, *p<0.05
Masson Fontana staining: Cryosections were air dried and fixed in ethanol-acetic acid. The sections were washed in tris-buffered saline (TBS) and distilled water several times. Cryosections were treated with ammoniacal silver solution (Fluka, Seelze, Germany) for 40 min at 56° C. in the dark. After washing in distilled water, the sections were treated with 5% aqueous sodium thiosulphate (Merck, Darmstadt, Germany) for 1 min. Next, the sections were washed in running tap water for 3 min and were counter-stained in 0.5% aqueous neutral red (Sigma). After washing in distilled water, sections were dehydrated and mounted in Eukitt (O. Kindler, Freiburg, Germany).

[4] = system: intact human scalp skin; assay: Full-thickness human scalp skin organ culture: hair cycle staging; type: cell-based
Description: Full-thickness human scalp skin organ culture was performed for six days under serum-free conditions as described in (Lu et al., 2007, the disclosures of which are incorporated herein by reference).
In brief, scalp skin of female patients was obtained from routine face-lift surgery after informed consent. Human scalp skin was washed in William's E medium (Biochrom, Cambridge, UK) supplemented with 100 IU/ml penicillin G (Sigma, St Louis, Mo., USA), 10 μg/ml streptomycin (Sigma), 0.25 μg/ml amphotericin B (Gibco, Karlsruhe, Germany) for 5 min. The out-growing hair shafts were shaved off to the level of the epidermis; 2 mm biopsies of intact scalp skin were then punched out (parallel to the direction of hair growth, i.e. at an oblique angle), using an Acu-puncher (STIEFEL, Offenbach am Main, Germany).
The punches of human scalp tissue were carefully placed into William's E medium [supplemented with 100 IU/ml penicillin/10 μg/ml streptomycin, 10 μg/ml of insulin (Sigma), 10 ng/ml of hydrocortisone (Sigma) and 2 mmol/I of I-glutamine (Invitrogen, Paisley, UK)]. The skin fragments were left to float in the medium, with the epidermis up at air/liquid interface and the dermis/subcutis down. The cultures were maintained at 37° C. in a gassed incubator with 95% air and 5% CO2. The culture medium was changed every other day.
Immediately after commencement of culturing, the skin fragments were exposed to the exemplary polypeptide FOL-005 (at a dose of 15 nM to 3 μM), which lasted for the duration of culturing.
(§1) At different time points, skin specimens were embedded in O.C.T.™ Tissue-TEK (Sakura, Zoeterwoude, the Netherlands), frozen in liquid nitrogen, and 6 μm cryosections were cut. The sections were then post-fixed in acetone, air-dried and processed for haematoxylin and eosin (H&E; Sigma), Giemsa or Masson-Fontana histochemistry. Individual hair follicles were analysed with respect to their stage of cycling as described (Whiting et al. 1999), while hair follicle melanization was assessed by standard silver nitrate histochemistry (Masson-Fontana stain). Quantification of well-defined reference areas within the proximal hair matrix was performed using the Image J software (NIH).

[5] = system: intact human scalp skin; assay: Ki67/TUNEL double immunofluorescence in intact human scalp skin; type: cell-based; conditions: 60 nM; 3 days after treatment
Description: FIG. 7). Effect of FOL-005 on proliferation of Ki67 positive cells in intact human scalp skin. The concentration of FOL-005 was 60 nM, Mean+/−SEM, n=6-17 photos/punch was evaluated. “D3”=3 days after treatment.
To evaluate apoptotic and proliferating cells, double immunofluorescence was applied. Terminal dUTP nicked label-ling (ApopTag®Fluorescein in situ Apoptosis Detection Kit; Chemicon, Tenecula, Calif., USA) was used as a marker for apoptosis, and Ki67 immunoreactivity (DakoCytomation, Glostrup, Denmark) as indicator of cell proliferation, as previously described (Foitzik et. al., 2006).
Masson Fontana staining and immunohistochemistry was performed as described above.
The proliferation of Ki67 positive cells and apoptosis therein was determined as described in Whiting et al., 1999, J Investig Dermatol Symp Proc 4:282-284 (the relevant disclosures of which are incorporated by reference).
Cells were exposed to exemplary polypeptide FOL-005 at a dose of 60 nM.

[6] = system: intact human scalp skin; assay: Masson-Fontana melanin pigmentation in intact human scalp skin; type: cell-based; conditions: injection or addition to the culture medium
Description: FIG. 8). Effect of FOL-005 on melatonin content in intact human scalp skin. The analysis was performed using Masson Fontana histochemistry and morphometric evaluation of each tissue section. Results presented as mean+/−SEM. One-way ANOVA and Bonferroni's post-hoc test, **p<0.01, *p<0.05. “D3”=3 days after treatment.
as §1
Pigmentation changes in isolated follicles treated with exemplary polypeptide FOL-005 were assessed by Masson-Fontana histochemistry (see Whiting et al., 1999, J Investig Dermatol Symp Proc 4:282-284, the relevant disclosures of which are incorporated by reference).

[7] = system: human HFs in organ-cultured full-thickness human scalp skin fragments; assay: Emigration of dermal papilla cells in organ-cultured human scalp skin fragments; type: cell-based; conditions: anagen HFs only; pooled data from six patients
Description: FIG. 11). Effect of FOL-005 on emigration of Dermal Papilla (DP) cells. Only Anagen Hair follicles (HFs) analysed. Results based on pooled data from 6 patients. No significant change in the number of emigrating DP cells in HFs treated with FOL-005. Mean+/−SEM, n=18-22 HFs evaluated, Mann-Whitney test, ns
(§2) The following experiments were performed using human HFs in organ-cultured full-thickness human scalp skin fragments (4 mm, 6 female patients, 42-65 yrs).

[8] = system: human HFs in organ-cultured full-thickness human scalp skin fragments; assay: Hair cycle staging in organ-cultured human scalp skin fragments; type: cell-based; conditions: pooled data from six patients
Description: FIG. 13). Hair Cycle staging. Treatment of HFs with FOL-005 consistently induces anagen HFs within human scalp skin to enter catagen prematurely in all six patients tested (in each vertical bar, the top region corresponds to mid-catagen, the middle region to early catagen and the bottom region to anagen). Pooled data from 6 patients.
as §2

[9] = system: human HFs in organ-cultured full-thickness human scalp skin fragments; assay: Masson Fontana HF pigmentation in organ-cultured human scalp skin fragments; type: cell-based; conditions: at the doses tested; pooled data from 6 patients
Description: FIG. 15). Masson Fontana staining. […] Anagen & Catagen Hair Follices analysed. Pooled data from 6 patients. Mean+/−SEM, n=41-51 HFs evaluated, unpaired Student's t-test, ns
FIG. 17). Masson Fontana staining. […] Anagen HFs analysed. Pooled data from 6 patients. Mean+/−SEM, n=13-22 HFs evaluated, unpaired Student's t-test, ns
as §2

[10] = system: human HFs in organ-cultured full-thickness human scalp skin fragments; assay: Hair follicle morphology (PAS staining); type: cell-based
Description: as §2

[11] = system: human HFs in organ-cultured full-thickness human scalp skin fragments; assay: Ki67/TUNEL proliferation/apoptosis in organ-cultured human scalp skin fragments; type: cell-based; conditions: 15 nM; anagen and catagen HFs analysed
Description: FIG. 20). Ki67/TUNEL. […] Anagen & Catagen HFs analysed. Pooled data from 6 patients. Mean+/−SEM, n=48-59 HFs evaluated, Mann-Whitney test, *p<0.02. To reduce data distortion by outliers, Grubb's test was performed and the outlier value was eliminated from analysis.
as §2
Mean+/−SEM, n=48-59 HFs evaluated, Mann-Whitney test, *p<0.02. To reduce data distortion by outliers, Grubb's test was performed and the outlier value was eliminated from analysis.

[12] = system: human HFs in organ-cultured full-thickness human scalp skin fragments; assay: Toluidine blue staining for perifollicular mast cells; type: cell-based
Description: FIG. 22). Toluidine blue staining for detecting Mast cells.
as §2

[13] = system: human HFs in organ-cultured full-thickness human scalp skin fragments; assay: MHCII staining (indirect immunofluorescence); type: cell-based
Description: FIG. 23). MHCII staining HS 14-061 (indirect immunofluorescence. Mouse anti human Ab HLA-DP-DQ-DR from DAKO). […] These MHCII+ cells are most likely macrophages.
as §2

[14] = system: human HFs in organ-cultured full-thickness human scalp skin fragments; assay: CD31 staining (indirect immunofluorescence); type: cell-based
Description: FIG. 24). CD31 staining HS14-061 (indirect immunoflourescence, mouse anti-human CD31 Ab from DAKO).
as §2

[15] = system: human HFs in organ-cultured full-thickness human scalp skin fragments; assay: K15 staining (indirect immunofluorescence); type: cell-based
Description: FIG. 25). […] Preservation of HF stem cell pool and thus regenerative potential by FOL-005.
as §2
K15 staining was performed using HS14-087 (indirect immunoflourescence, mouse anti-human CK15 Ab from Chemikon).

Nc1cc(N2CCCCC2)nc(N)[n+]1[O-] [Minoxidil, reference compound]
number of hairs/graft [1]: 8.1±0.1 hairs/graft

VDTYDGDISVVYGLR (FOL-005, Peptide with similarity to sub-region of osteopontin) [exemplary polypeptide of the invention, osteopontin-derived 15-mer]
hair follicle regression (analysis of cryosections) [2]: promotes hair follicle regression | transition from anagen to catagen phase ([2]; 15 nM, 60 nM and 300 nM, treatment 7 to 10 days): induced a dose-dependent transition from anagen to catagen phase | melanin pigmentation [3]: significant reduction in pigmentation | hair follicles in early catagen ([4]; addition to the culture medium): Almost all hair follicles are observed in early catagen | hair follicle regression (analysis of cryosections) ([4]; human skin pieces (Example B)): promotes hair follicle regression | catagen induction ([4]; injection into the scalp skin tissue): Catagen was also induced | transition from anagen to catagen phase ([4]; intact human scalp skin, 15 nM to 3 μM, six days culture): induced a rapid transition from anagen to catagen phase | apoptosis (proportion of TUNEL positive cells) [5]: increased level of apoptosis | proliferation (proportion of Ki67 positive cells) [5]: strong tendency towards reduced proliferation | melanin pigmentation [6]: significant reduction in pigmentation | number of emigrating dermal papilla (DP) cells in HFs [7]: No significant effect | HF cycling (anagen to catagen) [8]: consistently induced anagen HFs within human scalp skin to enter catagen prematurely in all six patients tested | HF pigmentation [9]: No significant changes | morphology of the BM (basal membrane) in HFs [10]: No observable difference | number of apoptotic cells in HFs [11]: significant increase | number of proliferative cells in HFs [11]: No significant changes | number of histochemically-detectable perifollicular mast cells [12]: No marked difference | number of immunohistologically-detectable perifollicular MHC class II+ cells [13]: No marked difference | number of CD31+ cells (endothelial cells) [14]: No marked differences | number of K15+ cells [15]: No marked differences | human HF epithelial stem cells ([15]; K15 staining): not affected negatively | number of hairs/graft [1]: 2.1±0.4 hairs/graft
